In patent US9630961B2, “Arginine methyltransferase inhibitors and uses thereof” (Epizyme, Inc., priority 2013, dated 2017):

Experiments:
[1] = biological target: T1, PRMT6 (Homo sapiens, UniProt Q96LA8); assay: PRMT6 Biochemical Assay (3H-SAM Flashplate, peptide substrate); conditions: 30 min preincubation, room temperature
T1 construct: Flag-PRMT6-His; made in house; host or cells: HEK 293F cells (BacMam virus)
Text: S-adenosylmethionine (SAM), S-adenosylhomocysteine (SAH), bicine, Tween20, dimethylsulfoxide (DMSO), bovine skin gelatin (BSG), sodium butyrate and Tris(2-carboxyethyl)phosphine hydrochloride solution (TCEP) were purchased from Sigma-Aldrich at the highest level of purity possible. ^3H-SAM was purchase from American Radiolabeled Chemicals with a specific activity of 80 Ci/mmol. 384-well streptavidin Flashplates were purchased from PerkinElmer.
Peptide representative of human histone H4 residues 36-50 was synthesized with an N-terminal linker-affinity tag motif and a C-terminal amide cap by 21st Century Biochemicals. The peptide was purified by high-performance liquid chromatography (HPLC) to greater than 95% purity and confirmed by liquid chromatography mass spectrometry (LC-MS). The sequence was Biot-Ahx-[…]-amide and contained a monomethylated lysine at position 44 (SEQ ID NO.:5).
Full-length human PRMT6 (NM_018137.2) transcript clone was amplified from an HEK 293 cDNA library, incorporating a flanking 5′ sequence encoding a FLAG tag ([…]) (SEQ ID NO.:6) fused directly to Ser 2 of PRMT6 and a 3′ sequence encoding a hexa His sequence (HHHHHH) fused directly to Asp 375. The amplified gene was subcloned into pFastBacMam (Viva Biotech).
Recombinant baculovirus were generated according to Bac-to-Bac kit instructions (Life Technologies). […] Infections were carried out at 37° C. for 48 hours, harvested by centrifugation, and stored at −80° C. for purification.
Column was washed with 20 mM imidazole in the same buffer and Flag-PRMT6-His was eluted with 150 mM imidazole. Pooled fractions were dialysed against buffer Ni-A and further purified by anti-flag M2 affinity chromatography. Flag-PRMT6-His was eluted with 200 ug/ml FLAG peptide in the same buffer. Pooled fractions were dialysed in 20 mM Tris, 150 mM NaCl, 10% glycerol and 5 mM β-mercaptoethanol, pH 7.8. The purity of recovered protein was 95%.
General Procedure for PRMT6 Enzyme Assays on Peptide Substrates.
The assays were all performed in a buffer consisting of 20 mM Bicine (pH=7.6), 1 mM TCEP, 0.005% BSG, and 0.002% Tween 20, prepared on the day of use. Compounds in 100% DMSO (1 ul) were spotted into a polypropylene 384-well V-bottom plates (Greiner) using a Platemate Plus outfitted with a 384-channel head (Thermo Scientific). DMSO (1 ul) was added to Columns 11, 12, 23, 24, rows A-H for the maximum signal control and 1 ul of SAH, a known product and inhibitor of PRMT6, was added to columns 11, 12, 23, 24, rows I-P for the minimum signal control. A cocktail (40 ul) containing the PRMT6 enzyme was added by Multidrop Combi (Thermo-Fisher). The compounds were allowed to incubate with PRMT6 for 30 min at room temperature, then a cocktail (10 ul) containing SAM and peptide was added to initiate the reaction (final volume=51 ul). The final concentrations of the components were as follows: PRMT6 was 1 nM, ^3H-SAM was 200 nM, non-radiolabeled SAM was 250 nM, peptide was 75 nM, SAH in the minimum signal control wells was 1 mM, and the DMSO concentration was 2%. The assays were stopped by the addition of non-radiolabeled SAM (10 ul) to a final concentration of 400 uM, which dilutes the ^3H-SAM to a level where its incorporation into the peptide substrate is no longer detectable. 50 ul of the reaction in the 384-well polypropylene plate was then transferred to a 384-well Flashplate and the biotinylated peptides were allowed to bind to the streptavidin surface for at least 1 hour before being washed once with 0.1% Tween20 in a Biotek ELx405 plate washer. The plates were then read in a PerkinElmer TopCount plate reader to measure the quantity of ^3H-labeled peptide bound to the Flashplate surface, measured as disintegrations per minute (dpm) or alternatively, referred to as counts per minute (cpm).
Where dpm=disintegrations per minute, cmpd=signal in assay well, and min and max are the respective minimum and maximum signal controls. […]

[2] = system: mono-methyl arginine in RKO cells; assay: RKO Methylation Assay, In Cell Western for mono-methyl arginine and DNA content; assay type: cell-based; conditions: Homo sapiens, 72 hours, percent activation of mono-methyl arginine signal
Text: RKO Methylation Assay RKO adherent cells were purchased from ATCC (American Type Culture Collection), Manassas, Va., USA. DMEM/Glutamax medium, penicillin-streptomycin, heat inactivated fetal bovine serum, 0.05% trypsin and D-PBS were purchased from Life Technologies, Grand Island, N.Y., USA. Odyssey blocking buffer, 800CW goat anti-rabbit IgG (H+L) antibody, and Licor Odyssey infrared scanner were purchased from Licor Biosciences, Lincoln, Nebr., USA. Mono-methyl arginine antibody was purchased from Cell Signaling Technology, Danvers, Mass., USA. Methanol was purchased from VWR, Franklin, Mass., USA. 10% Tween 20 was purchased from KPL, Inc., Gaithersburg, Md., USA. DRAQ5 was purchased from Biostatus Limited, Leicestershire, UK. RKO adherent cells were maintained in growth medium (DMEM/Glutamax medium supplemented with 10% v/v heat inactivated fetal bovine serum and 100 units/mL penicillin-streptomycin) and cultured at 37° C. under 5% CO2. Cell Treatment, in Cell Western (ICW) for Detection of Mono-Methyl Arginine and DNA Content. RKO cells were seeded in assay medium at a concentration of 20,000 cells per mL to a poly-D-lysine coated 384 well culture plate (BD Biosciences 356697) with 50 μL per well. Compound (100 nL) from a 96-well source plate was added directly to 384 well cell plate. Plates were incubated at 37° C., 5% CO2 for 72 hours. After three days of incubation, plates were brought to room temperature outside of the incubator for ten minutes and blotted on paper towels to remove cell media. 50 μL of ice cold 100% methanol was added directly to each well and incubated for 30 min at room temperature. After 30 min, plates were transferred to a Biotek EL406 plate washer and washed 2 times with 100 μL per well of wash buffer (IX PBS). Next 60 μL per well of Odyssey blocking buffer (Odyssey Buffer with 0.1% Tween 20 (v/v)) were added to each plate and incubated 1 hour at room temperature. Blocking buffer was removed and 20 μL per well of primary antibody was added (mono-methyl arginine diluted 1:200 in Odyssey buffer with 0.1% Tween 20 (v/v)) and plates were incubated overnight (16 hours) at 4° C. Plates were washed 5 times with 100 μL per well of wash buffer. Next 20 μL per well of secondary antibody was added (1:200 800CW goat anti-rabbit IgG (H+L) antibody, 1:1000 DRAQ5 (Biostatus limited) in Odyssey buffer with 0.1% Tween 20 (v/v)) and incubated for 1 hour at room temperature. The plates were washed 5 times with 100 μL per well wash buffer then 2 times with 100 μL per well of water. Plates were allowed to dry at room temperature then imaged on the Licor Odyssey machine which measures integrated intensity at 700 nm and 800 nm wavelengths. Both 700 and 800 channels were scanned. Calculations: First, the ratio for each well was determined by: Each plate included fourteen control wells of DMSO only treatment (minimum activation) as well as fourteen control wells for maximum activation treated with 20 μM of a reference compound. The average of the ratio values for each control type was calculated and used to determine the percent activation for each test well in the plate. Reference compound was serially diluted three-fold in DMSO for a total of nine test concentrations, beginning at 20 μM. Percent activation was determined and EC30 curves were generated using triplicate wells per concentration of compound.

T1 sequence (Q96LA8 with tags, fused parts or gaps): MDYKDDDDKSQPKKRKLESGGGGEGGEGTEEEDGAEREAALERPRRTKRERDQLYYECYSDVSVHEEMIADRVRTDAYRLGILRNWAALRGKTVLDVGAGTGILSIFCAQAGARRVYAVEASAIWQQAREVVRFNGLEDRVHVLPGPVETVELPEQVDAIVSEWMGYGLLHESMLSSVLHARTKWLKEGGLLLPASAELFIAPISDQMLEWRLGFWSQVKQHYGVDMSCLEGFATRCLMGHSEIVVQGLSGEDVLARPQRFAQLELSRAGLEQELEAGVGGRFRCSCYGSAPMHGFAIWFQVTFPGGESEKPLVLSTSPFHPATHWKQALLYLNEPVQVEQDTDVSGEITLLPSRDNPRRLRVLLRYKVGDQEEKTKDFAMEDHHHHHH

IC50 [1]: ≥ 10 µM
SMILES: Cc1nn(C)c(C)c1-c1n[nH]cc1CN(C)CCN [Compound 26]
EC30 [2]: ≥ 12 µM
